Data: the NIST ThermoML archive (doi:10.1016/j.fluid.2016.03.016)
± gives the expanded uncertainty stated by the source.

Experiment: mn = molality of the nth substance listed, in mol/kg
Settings: 100 kPa, Liquid, Vibrating tube method

CCC(=O)[O-].C[NH+]1CCCC1=O [N-methyl-2-oxopyrrolidinium propionate] + O
mass density [kg/m3]
Settings | 288.15 K | 298.15 K | 308.15 K | 318.15 K
m1 = 0.1 | 1000.28 ± 0.042 | 998.097 ± 0.042 | 994.976 ± 0.044 | 990.978 ± 0.045
m1 = 0.15 | 1000.81 ± 0.043 | 998.566 ± 0.044 | 995.384 ± 0.045 | 991.337 ± 0.047
m1 = 0.2 | 1001.35 ± 0.045 | 999.034 ± 0.045 | 995.792 ± 0.046 | 991.696 ± 0.048
m1 = 0.25 | 1001.89 ± 0.047 | 999.503 ± 0.046 | 996.2 ± 0.048 | 992.055 ± 0.049

C[NH+]1CCCC1=O.O=C[O-] [N-methyl-2-oxopyrrolidinium formate] + O
mass density [kg/m3]
Settings | 288.15 K | 298.15 K | 308.15 K | 318.15 K
m1 = 0.1 | 1000.87 ± 0.041 | 998.697 ± 0.042 | 995.571 ± 0.043 | 991.633 ± 0.045
m1 = 0.15 | 1001.64 ± 0.043 | 999.401 ± 0.043 | 996.217 ± 0.044 | 992.225 ± 0.046
m1 = 0.2 | 1002.42 ± 0.044 | 1000.1 ± 0.044 | 996.862 ± 0.045 | 992.816 ± 0.047
m1 = 0.25 | 1003.19 ± 0.046 | 1000.81 ± 0.045 | 997.508 ± 0.046 | 993.408 ± 0.048

O=C[C@H](O)[C@@H](O)[C@H](O)CO [D-xylose] + O
mass density [kg/m3]
Settings | m1 = 0.05973 | m1 = 0.06763 | m1 = 0.09347 | m1 = 0.1376 | m1 = 0.1501 | m1 = 0.1698 | m1 = 0.1873
288.15 K | 1002.39 ± 1.2 | 1002.82 ± 1.2 | 1004.22 ± 1.2 | 1006.58 ± 1.2 | 1007.24 ± 1.2 | 1008.28 ± 1.2 | 1009.21 ± 1.2
298.15 K | 1000.28 ± 1.2 | 1000.71 ± 1.2 | 1002.09 ± 1.2 | 1004.43 ± 1.2 | 1005.09 ± 1.2 | 1006.12 ± 1.2 | 1007.03 ± 1.2
308.15 K | 997.274 ± 1.2 | 997.695 ± 1.2 | 999.067 ± 1.2 | 1001.39 ± 1.2 | 1002.04 ± 1.2 | 1003.07 ± 1.2 | 1003.97 ± 1.2
318.15 K | 993.436 ± 1.2 | 993.851 ± 1.2 | 995.213 ± 1.2 | 997.518 ± 1.2 | 998.164 ± 1.2 | 999.183 ± 1.2 | 1000.08 ± 1.2

O=C[C@H](O)[C@@H](O)[C@H](O)[C@H](O)CO [D-glucose] + O
mass density [kg/m3]
Settings | m1 = 0.04761 | m1 = 0.08797 | m1 = 0.09893 | m1 = 0.1276 | m1 = 0.1555 | m1 = 0.1767 | m1 = 0.2008
288.15 K | 1002.39 ± 0.041 | 1005.11 ± 0.043 | 1005.85 ± 0.044 | – | 1009.58 ± 0.047 | 1010.96 ± 0.048 | 1012.51 ± 0.05
298.15 K | 1000.27 ± 0.04 | 1002.97 ± 0.043 | 1003.7 ± 0.043 | 1005.58 ± 0.045 | – | – | 1010.31 ± 0.049
308.15 K | 997.256 ± 0.042 | 999.92 ± 0.042 | 1000.64 ± 0.042 | 1002.5 ± 0.044 | 1004.29 ± 0.045 | 1005.64 ± 0.047 | –
318.15 K | 993.41 ± 0.043 | 996.056 ± 0.043 | 996.767 ± 0.043 | 998.624 ± 0.043 | 1000.4 ± 0.044 | 1001.75 ± 0.045 | 1003.26 ± 0.046

O [water] + O=C[C@H](O)[C@@H](O)[C@H](O)[C@H](O)CO
Settings | mass density [kg/m3]
308.15 K, m2 = 0 | 994.063 ± 0.042
